Assay results published in US20110086395A1, “NOVEL MICROORGANISM AND ITS USE IN LIGNOCELLULOSE DETOXIFICATION” (priority 2009, published 2011).
Marks after values point to notes of the source that are not given here.

Experiments:
[1] = system: C. basilensis HMF14; assay: Degradation of constituents of lignocellulosic hydrolysate, shake-flask cultures with each compound as single carbon source; assay type: cell-based, Cupriavidus basilensis
Excerpt: In addition to the furan derivatives, lignocellulosic hydrolysate also contains many other components that can inhibit fermentative production of biochemicals. While C. basilensis HMF14 is unable to degrade the sugars present in lignocellulosic hydrolysate, it preferably degrades many of the other toxic constituents, as illustrated in shake-flask cultures with each compound as a single carbon source (table 3).

[2] = system: Ralstonia eutropha; conditions: cited from earlier work
[3] = system: HmfFG; assay: Decarboxylase activity of HmfFG in cell extracts; assay type: biochemical; conditions: cell extracts of wildtype C. basilensis HMF14 and P. putida S12 expressing HmfFG
[4] = system: Cupriavidus sp. HMF14; assay: Growth of Cupriavidus sp. HMF14 on carbon sources (strain characterization); assay type: cell-based, Cupriavidus basilensis
[5] = system: HmfH; assay: Oxidation by HmfH in cell extracts; assay type: biochemical; conditions: cell extracts of wildtype C. basilensis HMF14 and P. putida S12 expressing HmfH
Procedure: C. basilensis HMF14 mutants with a disrupted hmfH gene accumulated HMF acid when cultured in the presence of HMF. Cell extracts of both wildtype C. basilensis HMF14 and P. putida S12 expressing HmfH formed FDCA when incubated with HMF acid, confirming that HmfH catalyzes the oxidation of the HMF-monocarboxylic acid to the dicarboxylic acid form.
Analogous to the furfural pathway, no specific genes were identified for the oxidations in the upper HMF metabolic pathway leading from HMF-alcohol to HMF and HMF-acid. Also these oxidations were concluded to be performed by non-specific, redundant dehydrogenases which activities were observed both in C. basilensis HMF14 and P. putida S12 (Table 2). However, it was observed that also HmfH could oxidize HMF, furfural, and furfuryl alcohol to the corresponding acids, respectively, furfural. Apparently, this oxidase is essential for the formation of FDCA from HMF-acid but also provides an oxidase-alternative to the non-specific alcohol and aldehyde dehydrogenases that constitute the upper metabolic pathways for HMF and furfural.

[6] = system: P. putida S12 pJT′hmfABCDE; assay: Growth of P. putida S12 pJT′hmfABCDE on furanics as sole carbon source; assay type: cell-based, Pseudomonas putida; conditions: growth initially poor
Excerpt: (§1) First, the furfural cluster hmfABCDE was introduced into P. putida S12. […] Therefore, strain S12 pJT′hmfABCDE was repeatedly transferred to fresh mineral salts medium with furfural as the sole carbon source.

[7] = system: C. basilensis HMF14; assay: Growth of C. basilensis HMF14 on furan derivatives as sole carbon source; assay type: cell-based, Cupriavidus basilensis; conditions: minimal medium, 3.5 mM compound as sole carbon source
Procedure: Cultures were performed either in Luria broth (LB) or in a minimal medium (MM). Enrichment cultures were performed in MM with 20 mM HMF as the carbon source (MMH20), supplemented as indicated with 0.1 g/l yeast extract as vitamin source (MMyH20). Solid media contained 1.5% agar. Soil and water samples were collected from the botanical garden of the Delft University of Technology and from a peat lake named ‘het Kootwijkerveen’ near Apeldoorn, The Netherlands. The samples were mixed and approximately 1 g was used to inoculate 50 ml MMH2O or MMyH2O in 500-ml Erlenmeyer flasks that were incubated at 30° C. for two days in a rotary shaker. One-ml samples were transferred twice to fresh medium and incubated until bacterial growth was apparent (OD600>1). The final enrichment cultures were streaked onto solid MMH10 and MMyH10 and incubated at 30° C. until colonies appeared.
(§2) Bacterial growth was determined by measuring optical density at 600 nm (OD600) using a Biowave Cell Density Meter (WPA Ltd) or a μQuant MQX200 universal microplate spectrophotometer (Bio-tek), using flat-bottom 96-well microplates (Greiner). Furan derivatives were analyzed on an Agilent 1100 system equipped with a diode array detector set at 230 nm. The column used was a Zorbax Eclipse XDB-C8 (length, 150 mm; internal diameter, 4.6 mm; particle size, 5 μm; Agilent) operated at 25° C. As eluent, a gradient of acetonitrile in 20 mM KH2PO4 (pH 2) with 1% acetonitrile was used at a flow of 1.2 ml/min, increasing from 0 to 5% in 3.5 min and from 5 to 40% in 2.5 min, set as smooth gradients.
In addition to HMF, other furan derivatives are present in lignocellulosic hydrolysates. […] Growth was observed on all tested furan derivatives, with slightly different growth characteristics (table 1). In cultures on furfural, furfural was initially rapidly converted to furfuryl alcohol, while also a small amount of furoic acid was formed (FIG. 1). Without wishing to be bound to any particular theory, conversion of furfural to its alcohol and/or acid form appears to be a common mechanism of furfural detoxification. At the onset of logarithmic growth, furfuryl alcohol production decreased in favour of biomass formation, which likely occurs via furoic acid. Similarly, HMF acid and -alcohol were formed in cultures with HMF as the carbon source. In addition, trace amounts of 2,5-furandicarboxylic acid and furoic acid were found in the HMF cultures (not shown).

[8] = system: P. putida S12_HMF; assay: Growth of P. putida S12_HMF on furfural or HMF as sole carbon source; assay type: cell-based, Pseudomonas putida
Excerpt: Subsequently, the hmfFGH genes were cloned into P. putida S12_fur. […] Gene hmfH′ was apparently dispensable for growth on HMF, confirming that the encoded gene had no function in HMF metabolism. Nor was the gene essential for HMF transport in P. putida S12. Thus, also all genes required for the utilization of HMF were characterized, and their functionality was reconfirmed by functional expression in a heterologous host.

[9] = system: C. basilensis HMF14; assay: Tolerance of C. basilensis HMF14 towards furfural and HMF, shake-flask cultures; assay type: cell-based, Cupriavidus basilensis; conditions: for Growth in the presence of compound: 5 mM; for Growth after 24 h of cultivation: shake-flask cultures with 3-15 mM furfural or HMF
Procedure: C. basilensis HMF14 grew in the presence of 5 mM of furfural or HMF (0.48 g/l, and 0.63 g/l respectively). However, since the concentration of these toxic compounds is often higher in lignocellulosic hydrolysates, with values ranging from 0 to 3.5 g/l for furfural, and from 0 to 5.9 g/l for HMF, the tolerance of C. basilensis HMF14 towards furfural and HMF was determined in shake-flask cultures with 3-15 mM furfural or HMF (FIG. 2, table 2). […] Also in the HMF cultures, no stable exponential growth was observed, but the apparent growth rate decreased rather than increased with increasing HMF concentrations.

[10] = system: C. basilensis HMF14; assay: Detoxification of wheat straw hydrolysate by C. basilensis HMF14; assay type: cell-based, Cupriavidus basilensis; conditions: for Concentration in hydrolysate during cultivation: during the first ten hours of cultivation; for Removal from wheat straw hydrolysate: after ten hours of cultivation
Procedure: Wheat straw hydrolysate was produced by dilute-acid hydrolysis (obtained from TNO Quality of Life, Zeist, The Netherlands). The hydrolysate was neutralized by adding 37 mM phosphate buffer (pH 7) and adjusting the pH to 7.0 with 10 M NaOH, resulting in a brown precipitate. After addition of minimal medium components, the solution was centrifuged at 10 000×g for 5 min. The supernatant was filter sterilized through a sterile PTFE filter with a pore size of 0.22 μm. The resulting medium (MMhyd) was inoculated with an overnight pre-culture of C. basilensis HMF14 in minimal medium with 3 mM HMF, 3 mM furfural and 12 mM sodium succinate.
as §2
Glucose, xylose and arabinose were analyzed by ion chromatography (Dionex ICS3000 system), using a CarboPac PA20 column (length, 150 mm; internal diameter, 3 mm) with 10 mM NaOH at a flow rate of 0.5 ml·min−1 as the eluent.

[11] = system: P. putida strain S12_fur; assay: Growth of P. putida S12_fur on furfural as sole carbon source; assay type: cell-based, Pseudomonas putida
Excerpt: as §1

[12] = system: P. putida S12 strains expressing only HmfABCD or HmfABC; assay: Growth of P. putida S12 strains expressing only HmfABCD or HmfABC; assay type: cell-based, Pseudomonas putida
[13] = shake-flask cultures, compound as single carbon source

SMILES: COc1cc(C(=O)O)cc(OC)c1O [Syringic acid]
- Substrate utilization by C. basilensis HMF14 [1, 13]: N

SMILES: COc1cc(C(=O)O)ccc1O [Vanillic acid]
- Substrate utilization by C. basilensis HMF14 [1, 13]: Y

SMILES: O=C(CO)[C@@H](O)[C@H](O)[C@H](O)CO [fructose]
- Metabolic activity of R. Eutropha on compound [2]: high metabolic activity

SMILES: O=C(O)c1ccc(C(=O)O)o1 [FDCA, 2,5-furan-dicarboxylic acid]
- Decarboxylation by HmfFG [3]: formed 2-furoic acid

SMILES: O=C(O)CC(O)(CC(=O)O)C(=O)O [citrate]
- Growth on carbon source [4]: able to grow

SMILES: OCc1ccco1 [Furfuryl alcohol]
- Oxidation by HmfH [5]: could oxidize
- Substrate utilization by C. basilensis HMF14 [1, 13]: Y
- Utilization as sole carbon source [6]: able to utilize
- Max. OD600 [7]: 1.08
- μmax [7]: 0.22 h⁻¹

SMILES: O=Cc1ccc(CO)o1 [HMF, 5-(hydroxymethyl)-furfural]
- Growth rate [8]: 0.23 h⁻¹
- Yield [8]: 40 % (C-mol biomass/C-mol substrate)
- Oxidation by HmfH [5]: could oxidize
- Substrate utilization by C. basilensis HMF14 [1, 13]: Y
- Growth in the presence of compound [9]: grew
- Growth after 24 h of cultivation [9]: growth was observed at all concentrations tested
- Max. OD600 [7]: 0.95
- μmax [7]: 0.25^a h−1

SMILES: O=C[C@@H](O)[C@H](O)[C@H](O)CO [Arabinose]
- Concentration in hydrolysate during cultivation [10]: stable
- Growth on carbon source [4]: No growth
- Substrate utilization by C. basilensis HMF14 [1, 13]: N

SMILES: Oc1ccccc1 [Phenol]
- Growth on carbon source [4]: able to grow
- Substrate utilization by C. basilensis HMF14 [1, 13]: Y

SMILES: O=Cc1ccc(O)cc1 [4-hydroxybenzaldehyde]
- Substrate utilization by C. basilensis HMF14 [1, 13]: Y

SMILES: O=Cc1ccco1 [Furfural]
- Metabolic activity of R. Eutropha on compound [2]: high metabolic activity
- Biomass yield [11]: 51 % (C-mol biomass/C-mol substrate)
- Growth rate ([11]; after 10 serial transfers): 0.30 h⁻¹
- Growth rate [8]: 0.23 h⁻¹
- Yield [8]: 40 % (C-mol biomass/C-mol substrate)
- Oxidation by HmfH [5]: could oxidize
- Substrate utilization by C. basilensis HMF14 [1, 13]: Y
- Utilization as sole carbon source [6]: able to utilize
- Growth in the presence of compound [9]: grew
- Growth after 24 h of cultivation [9]: growth was observed at all concentrations tested
- Max. OD600 [7]: 1.09
- μmax [7]: 0.22 h⁻¹

SMILES: O=C[C@H](O)[C@@H](O)[C@H](O)CO [Xylose]
- Concentration in hydrolysate during cultivation [10]: stable
- Growth on carbon source [4]: No growth
- Substrate utilization by C. basilensis HMF14 [1, 13]: N

SMILES: O=CO [Formic acid]
- Removal from wheat straw hydrolysate [10]: completely removed
- Substrate utilization by C. basilensis HMF14 ([1]; only co-utilized with a different carbon source): Y^b

SMILES: OCc1ccc(O)cc1 [4-hydroxybenzyl alcohol]
- Substrate utilization by C. basilensis HMF14 [1, 13]: Y

SMILES: c1ccccc1 [benzene]
- Growth on carbon source [4]: able to grow

SMILES: Cc1ccccc1 [toluene]
- Growth on carbon source [4]: able to grow

SMILES: COc1cc(CO)ccc1O [Vanillyl alcohol]
- Substrate utilization by C. basilensis HMF14 [1, 13]: Y

SMILES: CC(=O)O [Acetic acid]
- Removal from wheat straw hydrolysate [10]: completely removed
- Growth on carbon source [4]: able to grow
- Substrate utilization by C. basilensis HMF14 [1, 13]: Y

SMILES: O=C(O)c1ccco1 [Furoic acid]
- Growth on compound [12]: failed to grow
- Utilization as sole carbon source [6]: able to utilize
- Max. OD600 [7]: 0.99
- μmax [7]: 0.29 h⁻¹

SMILES: COc1cccc(OC)c1O [Syringol]
- Substrate utilization by C. basilensis HMF14 [1, 13]: N

SMILES: O=C(O)CCC(=O)O [succinate]
- Growth on carbon source [4]: able to grow

SMILES: O=C(O)c1ccc(O)cc1 [4-hydroxybenzoic acid]
- Substrate utilization by C. basilensis HMF14 [1, 13]: Y

SMILES: O=C(O)c1ccc(CO)o1 [HMF acid, 5-hydroxymethyl-2-furancarboxylic acid]
- Oxidation by HmfH [5]: formed FDCA
- Decarboxylation by HmfFG [3]: not decarboxylated

SMILES: COc1ccccc1O [Guaiacol]
- Substrate utilization by C. basilensis HMF14 [1, 13]: Y

SMILES: O=C(O)[C@H](O)[C@@H](O)[C@H](O)[C@H](O)CO [gluconate]
- Growth on carbon source [4]: able to grow

SMILES: COc1cc(/C=C/C(=O)O)ccc1O [Ferulic acid]
- Substrate utilization by C. basilensis HMF14 [1, 13]: Y

SMILES: CC(=O)CCC(=O)O [Levulinic acid]
- Substrate utilization by C. basilensis HMF14 [1, 13]: Y

SMILES: COc1cc(C=O)cc(OC)c1O [Syringaldehyde]
- Substrate utilization by C. basilensis HMF14 [1, 13]: N

SMILES: COc1cc(C=O)ccc1O [Vanillin]
- Substrate utilization by C. basilensis HMF14 [1, 13]: Y
